Laboratory results: patent US20080311657A1, “Killing Human Lymphoma and Leukemia Cancer Cells and Tcr-Activated Normal Human Cells By Dopamine D1r Agonists” (priority 2005, published 2008)

What was measured:
Format in all cases: cell-based
[1] = test system: Human Burkitt's B-lymphoma cells (Daudi); assay: Number of living cells counted by flow cytometry (FACSort) after D1R agonist; settings: 1 hour; for No. of Cells: 1 × 10^−4M; for Killing, in words (Table 5): 10^−4 M
Protocol: (§1) Human Burkitt's B-lymphoma cells (Daudi) were seeded in 96 well plates (0.5 ml per well of 0.5 million cells/ml) and A 77636 hydrochloride was added and diluted 1:00 into the wells at starting concentrations of 10^−1M-10^−4M, so that the final concentration range tested was 10^−3M-10^−6M. […] Then, the number of living cells was evaluated by flow cytometry (the cells were counted by FACsort for a fixed time length of 1 min, in which 100 microliter of each sample was tested).
as §1, with “68930” for “77636”
[…] Then, the number of living cells was evaluated by flow cytometry (the cells were counted by FACsort for a fixed time length of 1 min, in which 100 microliter of each sample was tested).
(§2) Cell viability was tested afterwards.
(§3) The effect of dopamine itself (that can of course activate all its D1R-5 receptors) was also tested. All of these molecules were tested at a similar concentration (10^−4 M). […] The specificity and restriction of the effect to the D1R is also seen in Tables 7 and 8.

[2] = test system: Human chronic myelogenous leukemia cells (CML) (K-562); assay: as above; settings: 1 hour; for No. of Cells: 1 × 10^−4M; for Killing, in words (Table 6): 10^−4 M
Protocol: (§4) Human chronic myelogenous leukemia cells (CML) (K-562) were seeded in 96 well plates (0.5 ml per well of 0.5 million cells/ml) and A 77636 hydrochloride was added and diluted 1:00 into the wells at starting concentrations of 10^−1M-10^−4M, so that the final concentration range tested was 10^−3M-10^−6M. Afterwards, the microtiter plates were placed in an incubator (37° C., humidified incubator, 5% CO2) for 3 days. Then, the number of living cells was evaluated by flow cytometry (the cells were counted by FACsort for a fixed time length of 1 min, in which 100 microliter of each sample was tested).
as §4, with “68930” for “77636”
as §4, with “SKF 38393 hydrobromide” for “A 77636 hydrochloride”
Human chronic myelogenous leukemia cells (CML) (K-562) were seeded in 96 well plates (0.5 ml per well of 0.5 million cells/ml) and A 77636 hydrochloride was added and diluted 1:00 into the wells, at a fixed starting concentration of 10^−2M, so that the final concentration tested was 10^−4M. The experiment was designed to test the effect of exposing the cells to the D1R agonist for 1 min, 15 min, 1 hr or 72 hr. Thus, 1 min, or 15 min or 1 hr after the addition of the D1R agonist, the corresponding cells were transferred into tubes, centrifuged (1000 rpm for 10 min), and the supernatant was removed. […] Thus, its medium was not replaced, and these cells and remained as such in the incubator for 72 hr. At the end of the 72 hr incubation, the number of living cells was evaluated by flow cytometry (the cells were counted by FACsort for a fixed time length of 1 min, in which 100 microliter of each sample was tested).
as §2
For this purpose, the Jurkat T-cell leukemia line, the HuT-78 human T-lymphoma (cutaneous “Sezary” T-lymphoma) line, and the K-562 human Chronic-Myeloid Leukemia (CML) and Daudi Human B-lymphoma (Burkitt's lymphoma) lines were seeded in tissue culture wells (0.5 million cells/0.5 ml/well).
Cell survival/death was evaluated 3 days later by counting the number of living cells, using flow cytometry.
as §3

[3] = test system: Human Sezary T-Cell Lymphoma (HuT 78) Cells; assay: Cell number, necrosis and apoptosis by Annexin V/PI flow cytometry; settings: 1 × 10^−4M, exposed for 1 hr; for % Necrotic Cells: Annexin V+ PI+; for % Apoptotic Cells: Annexin V+ PI−
Protocol: (§5) Measurement of cell death by flow cytometry and detection of phosphatidyl serine was performed using the IQ Products kit (R&D systems), according to the manufacturers instructions.
(§6) In detail: The Phosphatidyl Serine Detection kit provides a rapid and reliable method for the detection of apoptosis by flow cytometry. This method enables detection at the single-cell level, and also allows the distinction between apoptosis and necrosis.
(§7) During the early stages of apoptosis, phosphatidyl serine (PS) becomes exposed on the outside of the cell membrane. This early stage of apoptosis can be specifically detected by PS binding proteins (Annexin V).
(§8) During the early stages of apoptosis, the cell membrane is intact and the cells exclude propidium iodide (PI). Later, during the apoptosis process, the membrane becomes porous and PI becomes associated with DNA. The uptake of PI is an indication of necrosis.
as §3
(§9) Cancer death induced by selective D1R agonists occurs via necrosis. To study the mechanism by which the cancer cells die, due to their incubation with DR1 agonists, the phosphatidyl serine detection kit was used. This kit provides a rapid and reliable method for the detection of apoptosis by flow cytometry, enables detection at the single-cell level, and also allows the distinction between apoptosis and necrosis.
(§10) During the early stages of apoptosis, phosphatidyl serine (PS) becomes exposed on the outside of the cell membrane. This early stage of apoptosis can be specifically detected by PS binding proteins (Annexin V). During the early stages of apoptosis, the cell membrane is intact and the cells exclude propidium iodide (PI). Later, during the apoptosis process, the membrane becomes porous and PI becomes associated with DNA. The uptake of PI is an indication of necrosis. Thus, Annexin V^+ PI^− are considered cells that are undergoing apoptosis, while Annexin V^+ PI^+ are considered cells that are undergoing necrosis. Live cells are Annexin V^− PI^−.

[4] = test system: Human T-Cell Leukemia (Jurat) Cells; assay: as above; settings: 1 × 10^−4M, exposed for 1 hr; for % Necrotic Cells: Annexin V+ PI+; for % Apoptotic Cells: Annexin V+ PI−
Protocol: as §5, §6, §7, §8, §3, §9, §10

| Compound | No. of Cells [1] | Killing, in words (Table 5) [1] | No. of Cells [2] | Killing, in words (Table 6) [2] | No. of Cells [3] | % Necrotic Cells [3] | % Apoptotic Cells [3] | No. of Cells [4] | % Necrotic Cells [4] | % Apoptotic Cells [4] |
| --- | --- | --- | --- | --- | --- | --- | --- | --- | --- | --- |
| CCCN(CCC)C1CCc2ccc(O)cc2C1 (stereo not drawn) [D3R Agonist, 7-Hydroxy-DPAT] | 18,330 | no such effect | 21,960 | no such effect | 18,975 | 21.40% | 14.67% | 9,300 | 10.27% | 1.68% |
| NCCc1ccc(O)c(O)c1 [Dopamine] | 5,325 | killed the B-lymphoma cells | 24,480 | not the CML | 16,395 | 39.80% | 19.07% | 4,545 | 42.84% | 7.06% |
| CCCN1CCC[C@@H]2Cc3n[nH]cc3C[C@H]21 [D2R Agonist, Quinpirole] | 20,805 | no such effect | 27,360 | no such effect | 23,880 | 21.97% | 12.00% | 7,395 | 7.65% | 1.38% |
